These results are taken from PMC7855844 (Bioorganic & medicinal chemistry, 2020).

One experiment concerns the target Mcl-1 protein (Homo sapiens, UniProt Q07820). In words: Fluorescence polarization-based binding. Conditions: for decrease in Mcl-1 inhibitory activity: compared with coumarin 33. Background: Polarisation of emitted light reports the rotation of a fluorescent probe.
Another experiment concerns A549 cells. In words: Cytotoxicity assay by SRB method. The conditions noted are these: taxol in combination with Cpd 4 vs taxol alone. (In general: The SRB assay estimates cell density from bound dye.)

Mcl-1 protein, sequence (Q07820 whole entry): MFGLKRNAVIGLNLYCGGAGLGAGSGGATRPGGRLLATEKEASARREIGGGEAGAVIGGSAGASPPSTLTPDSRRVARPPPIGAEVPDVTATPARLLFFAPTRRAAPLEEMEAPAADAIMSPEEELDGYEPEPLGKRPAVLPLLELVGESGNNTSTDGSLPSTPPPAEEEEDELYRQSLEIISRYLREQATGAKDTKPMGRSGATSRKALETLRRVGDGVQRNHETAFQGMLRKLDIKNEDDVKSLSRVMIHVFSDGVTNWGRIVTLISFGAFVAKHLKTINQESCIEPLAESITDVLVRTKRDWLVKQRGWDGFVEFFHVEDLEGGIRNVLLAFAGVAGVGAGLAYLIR

As for `Cc1cc(=O)oc2c(CN3CCC(O)CC3)c(O)c(O)cc12` [Cpd 15, 6,7-dihydroxy-8-((4-hydroxypiperidin-1-yl)methyl)-4-methyl-2H-chromen-2-one], the “decrease of Mcl-1 inhibitory activity” value at Mcl-1 protein (compared with parent 1) is recorded as “more than 7 fold”.

For `O=c1ccc2cc(O)ccc2o1` [Cpd 34, 6-hydroxycoumarin], the “decrease in Mcl-1 inhibitory activity” value on Mcl-1 protein turned out to be 6 fold.

As to `O=c1ccc2ccc(O)cc2o1` [Cpd 35, 7-hydroxycoumarin], at Mcl-1 protein, the “decrease in Mcl-1 inhibitory activity” value is “little effect”.

Regarding `CC(=O)O[C@H]1C(=O)[C@@]2(C)[C@H]([C@H](OC(=O)c3ccccc3)[C@]3(O)C[C@H](OC(=O)[C@H](O)[C@@H](NC(=O)c4ccccc4)c4ccccc4)C(C)=C1C3(C)C)[C@]1(OC(C)=O)CO[C@@H]1C[C@@H]2O` [taxol], the “decrease of IC50 value for the combination compared with taxol alone” value in the experiment with A549 cells was “more than 10 fold”.

In general, Kd refers to a measure of binding affinity in units of concentration. As to “FAM-Bid: Bid BH3 peptide of 21-residue (residues 79–99) with a 6-carboxy-fluorescein succinimidyl ester fluorescence tag [reference compound]”, the Kd with Mcl-1 protein (read-out: Kd for binding to Mcl-1 protein, saturation experiments) amounted to 13 nM.
